This is an account of results in article PMC10577698, “Development of Novel ^11C-Labeled Selective Orexin-2 Receptor Radioligands for Positron Emission Tomography Imaging” (ACS Medicinal Chemistry Letters, 2023).

Where two headings read alike, the source gives them in different places.

The target of one series is T1, human orexin 2 receptor (Homo sapiens, UniProt O43614).
T1 sequence (O43614 1-444): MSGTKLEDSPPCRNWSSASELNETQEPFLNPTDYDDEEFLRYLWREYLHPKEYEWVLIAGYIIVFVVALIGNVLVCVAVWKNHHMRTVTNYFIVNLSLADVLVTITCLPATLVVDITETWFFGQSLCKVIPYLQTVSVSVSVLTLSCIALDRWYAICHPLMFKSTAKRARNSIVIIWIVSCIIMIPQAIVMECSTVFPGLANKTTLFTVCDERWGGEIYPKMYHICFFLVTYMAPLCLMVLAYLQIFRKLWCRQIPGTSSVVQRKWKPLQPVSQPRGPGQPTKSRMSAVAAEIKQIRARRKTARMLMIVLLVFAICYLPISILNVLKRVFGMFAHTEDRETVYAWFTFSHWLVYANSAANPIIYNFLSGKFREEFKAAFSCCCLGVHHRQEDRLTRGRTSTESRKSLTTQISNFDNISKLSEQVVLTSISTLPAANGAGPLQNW
The series can be described thus: Human OX2 receptor radioligand ([3H]EMPA) competition binding assay. The following applies: for Selectivity (OX2R/OX1R): Figure 4b.

Another series has as its target CYP2C19 (Homo sapiens, UniProt P33261). The series can be described thus: biochemical.
The target in the next series is CYP2C9 (Homo sapiens, UniProt P11712). The series can be described thus: biochemical.
Sequence of CYP2C9 (P11712 whole entry, species assumed): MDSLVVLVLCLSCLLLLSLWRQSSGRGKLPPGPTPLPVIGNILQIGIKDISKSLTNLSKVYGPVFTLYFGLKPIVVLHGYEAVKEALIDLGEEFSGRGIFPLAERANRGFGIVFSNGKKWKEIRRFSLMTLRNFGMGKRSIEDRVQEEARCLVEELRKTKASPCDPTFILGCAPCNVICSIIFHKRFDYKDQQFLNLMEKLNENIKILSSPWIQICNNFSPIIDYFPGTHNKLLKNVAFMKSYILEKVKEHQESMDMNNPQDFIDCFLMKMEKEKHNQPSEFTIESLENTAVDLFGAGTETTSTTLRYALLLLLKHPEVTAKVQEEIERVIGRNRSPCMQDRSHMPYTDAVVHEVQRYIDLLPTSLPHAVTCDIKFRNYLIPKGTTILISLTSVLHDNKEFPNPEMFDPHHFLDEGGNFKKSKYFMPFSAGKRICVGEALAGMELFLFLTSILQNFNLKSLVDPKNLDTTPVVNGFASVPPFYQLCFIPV
A further series has as its target CYP2D6 (Homo sapiens, UniProt P10635). The series can be described thus: biochemical.
For the next series, the target named is T2, CYP19A (Homo sapiens, UniProt P11511).
T2 sequence (P11511 1-503): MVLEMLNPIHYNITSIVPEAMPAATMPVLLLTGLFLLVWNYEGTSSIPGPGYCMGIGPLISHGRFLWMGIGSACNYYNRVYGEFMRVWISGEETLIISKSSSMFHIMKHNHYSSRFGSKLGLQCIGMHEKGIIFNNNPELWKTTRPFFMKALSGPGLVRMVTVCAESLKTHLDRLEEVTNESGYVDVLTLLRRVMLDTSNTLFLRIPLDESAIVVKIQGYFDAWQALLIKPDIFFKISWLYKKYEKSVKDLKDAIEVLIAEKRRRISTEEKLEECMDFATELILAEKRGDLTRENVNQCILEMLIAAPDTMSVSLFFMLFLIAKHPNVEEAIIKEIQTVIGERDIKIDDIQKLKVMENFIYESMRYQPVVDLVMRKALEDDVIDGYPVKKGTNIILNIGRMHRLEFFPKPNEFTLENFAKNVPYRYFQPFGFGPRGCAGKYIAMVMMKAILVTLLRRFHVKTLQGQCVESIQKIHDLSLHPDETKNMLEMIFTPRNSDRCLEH

The next series addresses T3, orexin 2 receptors (Rattus norvegicus, UniProt P56719).
T3 sequence (P56719 1-460): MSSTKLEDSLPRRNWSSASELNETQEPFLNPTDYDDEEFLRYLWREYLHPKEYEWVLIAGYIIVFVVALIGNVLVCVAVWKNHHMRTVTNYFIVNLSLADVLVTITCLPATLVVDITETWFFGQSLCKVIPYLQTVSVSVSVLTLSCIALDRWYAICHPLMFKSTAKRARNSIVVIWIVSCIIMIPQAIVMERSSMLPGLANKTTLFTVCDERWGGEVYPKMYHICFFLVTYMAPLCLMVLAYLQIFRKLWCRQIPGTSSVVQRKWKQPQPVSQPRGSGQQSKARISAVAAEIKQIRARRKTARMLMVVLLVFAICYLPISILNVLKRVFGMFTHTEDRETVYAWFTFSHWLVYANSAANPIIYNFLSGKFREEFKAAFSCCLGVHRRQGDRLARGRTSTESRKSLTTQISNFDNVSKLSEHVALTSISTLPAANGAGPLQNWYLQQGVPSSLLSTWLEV
The series can be described thus: In vitro autoradiography in rat brain sections. The conditions noted are these: for effect of blocker on radioactivity in OX2-rich brain regions: blocker 10 μM, autoradiography with [11C]1 or [11C]2, rat brain sections; for in vitro binding specificity: rat brain sections, autoradiography.

The next series deals with CYP3A4 (Homo sapiens, UniProt P08684). The series can be described thus: biochemical.
Sequence of CYP3A4 (P08684 whole entry, species assumed): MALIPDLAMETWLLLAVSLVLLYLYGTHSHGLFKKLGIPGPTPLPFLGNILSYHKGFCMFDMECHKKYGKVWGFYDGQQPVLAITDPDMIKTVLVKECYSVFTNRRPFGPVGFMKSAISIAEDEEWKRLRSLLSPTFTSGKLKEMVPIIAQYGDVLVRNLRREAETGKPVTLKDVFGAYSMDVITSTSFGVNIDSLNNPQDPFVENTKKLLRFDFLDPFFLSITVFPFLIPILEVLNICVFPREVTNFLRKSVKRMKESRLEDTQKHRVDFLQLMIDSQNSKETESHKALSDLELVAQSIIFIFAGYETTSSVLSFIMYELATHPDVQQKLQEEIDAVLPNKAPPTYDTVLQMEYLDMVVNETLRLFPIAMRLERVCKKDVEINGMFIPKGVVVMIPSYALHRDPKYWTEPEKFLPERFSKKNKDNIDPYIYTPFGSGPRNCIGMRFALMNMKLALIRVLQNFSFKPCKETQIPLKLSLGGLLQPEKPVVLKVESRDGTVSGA
In the next series the target is T4, CYP1A2 (Homo sapiens, UniProt P05177).
T4 sequence (P05177 1-516): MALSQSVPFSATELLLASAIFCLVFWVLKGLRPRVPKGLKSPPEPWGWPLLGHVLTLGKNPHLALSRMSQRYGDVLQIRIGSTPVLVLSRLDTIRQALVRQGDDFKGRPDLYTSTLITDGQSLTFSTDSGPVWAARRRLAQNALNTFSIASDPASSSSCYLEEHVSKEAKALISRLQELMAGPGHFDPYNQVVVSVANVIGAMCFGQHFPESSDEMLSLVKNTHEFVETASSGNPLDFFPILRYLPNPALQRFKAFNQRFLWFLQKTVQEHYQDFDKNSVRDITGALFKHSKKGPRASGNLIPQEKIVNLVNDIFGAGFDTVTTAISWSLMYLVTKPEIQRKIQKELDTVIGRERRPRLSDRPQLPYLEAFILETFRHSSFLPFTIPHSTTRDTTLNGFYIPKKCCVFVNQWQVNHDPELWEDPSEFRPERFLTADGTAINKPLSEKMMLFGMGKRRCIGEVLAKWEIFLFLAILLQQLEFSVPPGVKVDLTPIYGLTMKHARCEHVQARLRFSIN
The series can be described thus: CYP450 inhibition assay.

For a further series, the target named is hERG (Homo sapiens, UniProt Q12809). The series can be described thus: biochemical.
Sequence of hERG (Q12809 whole entry): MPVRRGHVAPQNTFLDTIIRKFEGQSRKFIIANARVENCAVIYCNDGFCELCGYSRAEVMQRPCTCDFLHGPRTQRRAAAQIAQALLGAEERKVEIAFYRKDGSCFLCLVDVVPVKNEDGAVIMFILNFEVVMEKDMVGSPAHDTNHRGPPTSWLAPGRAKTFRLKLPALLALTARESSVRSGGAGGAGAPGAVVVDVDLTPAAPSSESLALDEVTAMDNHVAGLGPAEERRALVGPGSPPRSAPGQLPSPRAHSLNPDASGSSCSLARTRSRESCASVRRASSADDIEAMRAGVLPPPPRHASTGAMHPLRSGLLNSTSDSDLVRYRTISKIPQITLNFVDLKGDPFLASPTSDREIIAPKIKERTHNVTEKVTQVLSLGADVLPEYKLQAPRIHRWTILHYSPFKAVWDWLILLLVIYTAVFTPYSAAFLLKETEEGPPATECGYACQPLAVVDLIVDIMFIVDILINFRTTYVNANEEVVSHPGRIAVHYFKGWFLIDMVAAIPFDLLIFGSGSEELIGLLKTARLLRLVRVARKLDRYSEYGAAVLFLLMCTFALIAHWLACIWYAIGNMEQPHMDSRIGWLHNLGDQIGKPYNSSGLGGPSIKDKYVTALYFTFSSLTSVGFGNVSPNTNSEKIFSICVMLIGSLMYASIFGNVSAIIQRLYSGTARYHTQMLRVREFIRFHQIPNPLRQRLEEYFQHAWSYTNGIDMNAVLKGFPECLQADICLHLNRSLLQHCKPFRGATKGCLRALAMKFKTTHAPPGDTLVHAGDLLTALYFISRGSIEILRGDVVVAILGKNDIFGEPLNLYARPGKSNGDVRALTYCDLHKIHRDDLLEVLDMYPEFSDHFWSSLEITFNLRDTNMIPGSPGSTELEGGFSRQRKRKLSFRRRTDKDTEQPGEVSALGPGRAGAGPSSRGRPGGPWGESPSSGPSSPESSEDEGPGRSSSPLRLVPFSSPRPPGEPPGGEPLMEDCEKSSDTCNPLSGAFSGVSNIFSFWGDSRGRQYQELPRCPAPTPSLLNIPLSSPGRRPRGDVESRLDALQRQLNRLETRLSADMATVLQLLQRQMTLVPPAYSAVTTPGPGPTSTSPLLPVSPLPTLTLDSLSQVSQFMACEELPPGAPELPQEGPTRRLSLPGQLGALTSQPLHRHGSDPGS
Series [1] in a line: Stability of radiotracer in saline. The series is classed as physicochemical. The conditions noted are these: within 90 min. As to the method: Based on the favorable in vitro pharmacological and ADME properties, compounds 1 and 2 were labeled with carbon-11 and evaluated as OX2 PET radioligands. […] The reaction mixtures were then diluted with the HPLC buffer and purified by a semipreparative reverse HPLC to give [^11C]1 and [^11C]2 in 71% and 20% radiochemical yields (decay-corrected) with the molar activities of 210 GBq/μmol and 185 GBq/μmol, respectively.

The target in series [2] is peripheral benzodiazepine receptor (Rattus norvegicus, UniProt P16257). The series can be described thus: Off-target binding (NIMH PDSP), peripheral benzodiazepine receptor.
A further series relates to OX2R. Further details: method as in PMID 19751316. The conditions noted are these: cited from earlier work.
For the next series, the system named is rat brain. The series can be described thus: Dynamic PET imaging in Sprague-Dawley rats.
Where [3] appears, read: SD rats pretreated with Elacridar 3 mg/kg 20 min before tracer.

As a reminder, the Ki is a measure of affinity in units of concentration, obtained from inhibition or displacement.

Sequence of CYP2D6 (P10635 whole entry, species assumed): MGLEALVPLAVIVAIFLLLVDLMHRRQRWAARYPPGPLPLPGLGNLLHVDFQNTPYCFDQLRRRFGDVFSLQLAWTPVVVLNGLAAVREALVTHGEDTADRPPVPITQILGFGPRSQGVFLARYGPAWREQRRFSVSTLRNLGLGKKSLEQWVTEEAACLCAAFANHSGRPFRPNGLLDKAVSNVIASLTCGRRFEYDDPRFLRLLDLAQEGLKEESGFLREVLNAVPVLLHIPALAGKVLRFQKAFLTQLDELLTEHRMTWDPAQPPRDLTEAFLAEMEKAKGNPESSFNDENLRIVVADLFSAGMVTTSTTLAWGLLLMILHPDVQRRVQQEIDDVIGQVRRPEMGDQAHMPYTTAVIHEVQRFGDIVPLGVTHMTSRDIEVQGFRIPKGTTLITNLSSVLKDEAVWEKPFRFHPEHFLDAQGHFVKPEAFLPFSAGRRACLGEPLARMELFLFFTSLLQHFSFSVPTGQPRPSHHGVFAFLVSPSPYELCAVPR
Sequence of CYP2C19 (P33261 whole entry, species assumed): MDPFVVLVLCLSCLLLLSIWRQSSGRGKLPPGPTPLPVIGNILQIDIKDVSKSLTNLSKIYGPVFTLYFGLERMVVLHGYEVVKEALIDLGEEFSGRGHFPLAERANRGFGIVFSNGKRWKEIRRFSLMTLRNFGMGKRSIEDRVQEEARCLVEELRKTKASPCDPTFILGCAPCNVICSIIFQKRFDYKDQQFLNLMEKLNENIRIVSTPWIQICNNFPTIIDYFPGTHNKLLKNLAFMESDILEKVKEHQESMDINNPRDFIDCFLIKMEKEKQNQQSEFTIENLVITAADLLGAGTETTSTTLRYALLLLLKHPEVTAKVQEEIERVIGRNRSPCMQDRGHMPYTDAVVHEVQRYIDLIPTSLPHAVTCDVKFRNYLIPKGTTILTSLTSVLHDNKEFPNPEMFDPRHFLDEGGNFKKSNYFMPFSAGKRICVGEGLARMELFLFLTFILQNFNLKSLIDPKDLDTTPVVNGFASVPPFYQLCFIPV
Description for CYP1A2: (§1) Human OX2 receptor binding (agonist radioligand) assays were finished by Gifford
(§2) Bioscience Limited. Competition binding assays were carried out in 96-well polypropylene
(§3) plates in a final volume of 250 µL per well. To each well were added 150 µL Human OX2
(§4) Receptor Membranes (MultiSpan Inc, MC1034), 50 µL of non-specific or test compound
(§5) or buffer (50 mM Tris, 5 mM MgCl2, 0.1 mM EDTA, pH 7.4), and 50 µL radioligand
(§6) ([3H]EMPA) solution in the buffer. The plate was incubated at 30 °C for 60 minutes with
(§7) gentle agitation. The incubation was stopped by vacuum filtration onto presoaked (Tris
(§8) buffer with PEI) GF/C filters using a 96-well FilterMate™ harvester, followed by 5 washes
(§9) with ice-cold wash buffer (50 mM Tris, 5 mM MgCl2, 0.1 mM EDTA, pH 7.4). Filters were
(§10) then dried under a warm air stream and sealed in polyethylene, a scintillation cocktail was
(§11) specific binding. Data were fitted using the non-linear curve fitting routines in Prism®
(§12) (Graphpad Software Inc) to determine IC50. Ki was subsequently calculated using the
(§13) CYP enzymes and hERG inhibition assays were finished by Reaction Biology Corporation.
Excerpt for CYP2C19: as §13
Description for CYP2C9: as §1, §2, §3, §4, §5, §6, §7, §8, §9, §10, §11, §12, §13
Excerpt for CYP2D6: as §13
Excerpt for CYP3A4: as §13
Description for hERG: as §1, §2, §3, §4, §5, §6, §7, §8, §9, §10, §11, §12, §13
Description for human orexin 2 receptor: as §1, §2, §3, §4, §5, §6, §7, §8, §9, §10, §11, §12, §13
Description for orexin 2 receptors: 2.5 In vitro autoradiography
The method for in vitro autoradiography was slightly modified from previous reports. 5 Rat
brain was cut into 20 μm sections, stored at −80 °C, and ready for the experiment. The rat
brain sections were preincubated with Tris−HCl buffer (50 mM) containing MgCl2 (2 mM)
and CaCl2 (1.2 mM) for 20 min at ambient temperature, followed by incubation with [11C]1
added to incubation solution. Then the brain sections were washed with ice-cold buffer for
three times and dipped in cold distilled water for 10 s. The brain sections were dried with
cold air. The exposure time for the phosphor plate in the autoradiography study is 1 h .

With `CCN(Cc1ccccc1)C(=O)CN(c1ccc(OC)nc1)S(=O)(=O)c1ncccc1C` [Compound 2], the Ki on human orexin 2 receptor turned out to be 0.0022 µM. The “target selectivity OX2/OX1” value on human orexin 2 receptor is on record as more than 600 folds. Besides, the “Selectivity (OX2R/OX1R)” value at human orexin 2 receptor is given as 1220. Further, the IC50 on human orexin 2 receptor (read-out: IC50/OX2, [3H]EMPA competition, human OX2 receptor membranes) was 0.0044 µM; at CYP2C19 it was more than 5 µM; against CYP2C9, more than 5 µM; against CYP2D6, more than 5 µM; on CYP19A, more than 5 µM; against CYP3A4 it was more than 5 µM. For the same compound, the IC50 against CYP1A2 was more than 5 µM; against hERG, more than 100 µM. Moreover, on orexin 2 receptors, the “effect of blocker on radioactivity in OX2-rich brain regions” value is recorded as “remarkably diminished the radioactivity”.
For `CCN(Cc1ccccc1)C(=O)CN(c1ccccc1O[11CH3])S(=O)(=O)c1ncccc1C` [[^11C]1], the “in vitro binding specificity” value at orexin 2 receptors was “good to excellent in vitro binding specificity”. For the same compound, the stability in saline entry in [1] is recorded as “stable”.
With `CCN(Cc1ccccc1)C(=O)CN(c1ccccc1OC)S(=O)(=O)c1ncccc1C` [Compound 1], the IC50 is 0.0071 µM on human orexin 2 receptor; more than 5 µM on CYP2C19; more than 5 µM at CYP2C9; more than 5 µM on CYP2D6; more than 5 µM on CYP19A; more than 5 µM on CYP3A4. Moreover, the IC50 is more than 5 µM at CYP1A2 and more than 100 µM at hERG. The Ki stood at 0.0036 µM at human orexin 2 receptor and 0.253 µM in series [2]. The “target selectivity OX2/OX1” value at human orexin 2 receptor is recorded as more than 600 folds. The “Selectivity (OX2R/OX1R)” value at human orexin 2 receptor is 601. At orexin 2 receptors, the “effect of blocker on radioactivity in OX2-rich brain regions” value is on record as “remarkably diminished the radioactivity”.
On to “orexin-B: endogenous neuropeptide ligand, a 28 amino acid peptide”, for which the “selectivity toward OX2R against OX1R” value in the series on OX2R is given as more than 10 folds.
Regarding `CCN(Cc1ccccc1)C(=O)CN(c1ccc(O[11CH3])nc1)S(=O)(=O)c1ncccc1C` [[^11C]2], the “in vitro binding specificity” value on orexin 2 receptors is listed as “good to excellent in vitro binding specificity”. Further, the “highest radioactivity levels in hippocampus and cerebellum” value is 0.9 SUV in the series on rat brain (setting [3]) and “around 0.4 SUV” in the series with rat brain (baseline, SD rats, 2 min postadministration of tracer). For the same compound, the “radioactivity level after washout in hippocampus and cerebellum” value is 0.3 SUV with rat brain (setting [3]) and 0.2 SUV with rat brain (baseline, SD rats, 60 min scan). In the series on rat brain (baseline PET, SD rats), the brain uptake entry was “poor brain uptake”. The “bound radioactivity levels in hippocampus and cerebellum after blocking” value in the series on rat brain (preadministration of EMPA 1 mg/kg i.v., SD rats) is given as “did not remarkably reduce”. Moreover, the stability in saline entry in [1] is reported as “stable”.
